Assay results taken from US12692253B2, “Antimicrobial compounds and methods” (Curza Global, LLC, priority 2019, dated 2026).

Tests used:
[1] = system: E. coli S30 extract (bacterial protein synthesis); assay: E. coli S30 extract coupled transcription-translation luciferase assay (inhibition of bacterial protein synthesis); format: biochemical; settings: % inhibition @ 1 μM, read-out: S30 IC50 (μM/% inhib.)
Summary of the method: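 Coupled transcription-translation in E. coli S30 circular-DNA extract expressing luciferase from pBESTluc, with 8-point 2-fold compound dilutions; 1 hour at 37 °C, stopped at 4 °C. Luminescence read; % inhibition versus no-inhibitor wells, no-DNA wells as background.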

[2] = molecular target: Rabbit Reticulocyte Lysate (eukaryotic protein synthesis); assay: Rabbit reticulocyte lysate luciferase assay (inhibition of eukaryotic protein synthesis); format: biochemical; settings: % inhibition @ 1 μM, read-out: Rabbit reticulocyte IC50 (μM/% inhib.)
Summary of the method: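 In vitro translation of luciferase control RNA in nuclease-treated rabbit reticulocyte lysate with amino acid mixture, compounds in 2-fold serial dilution, 90 minutes at 30° C. Luminescence read after luciferase reagent; % inhibition relative to water no-inhibitor controls, with no-RNA background wells.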

A. baumannn (Ab) = assay: Broth microdilution minimum inhibitory concentration (MIC), CLSI; format: cell-based; settings: A. baumannn; growth medium with sodium bicarbonate; read-out: Ab + bicarb MIC
Summary of the method: (§1)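 Bacteria grown at 35±2 °C to 0.5 McFarland turbidity were added at 5×10^4 CFU/well to triplicate two-fold compound series (8 dilutions). Media were cation-adjusted Mueller-Hinton broth alone or with sodium bicarbonate (6.25 or 25 mM final) or heat-inactivated human serum (0–50%), per modified CLSI method.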

E. coli (Ec) = assay: as above; format: cell-based; settings: Escherichia coli, growth medium with sodium bicarbonate, read-out: E. coli + bicarb MIC
Summary of the method: as §1

E. faecalis (Ef) = assay: as above; format: cell-based; settings: Enterococcus faecalis, growth medium with sodium bicarbonate, read-out: Ef + bicarb MIC
Summary of the method: as §1

P. aeruginosa (Pa) = assay: as above; format: cell-based; settings: Pseudomonas aeruginosa, growth medium with sodium bicarbonate, read-out: Pa MIC + bicarb
Summary of the method: as §1

S. aureus (Sa) = assay: as above; format: cell-based; settings: Staphylococcus aureus, growth medium with sodium bicarbonate, read-out: Sa + bicarb MIC
Summary of the method: as §1

SMILES	IC50 [1] [µM]	IC50 [2] [µM]	MIC (A. baumannn (Ab)) [µg/mL]	MIC (E. coli (Ec)) [µg/mL]	MIC (E. faecalis (Ef)) [µg/mL]	MIC (P. aeruginosa (Pa)) [µg/mL]	MIC (S. aureus (Sa)) [µg/mL]
CC(COc1ccc(-n2ccc(NC(=O)N3CCN(C(=O)C(C)(C)N)CC3)nc2=O)cc1)N1CC2CC2(CN)C1 (stereo not drawn) [Compound 189]	< 0.5	≥ 1	> 32	< 8	< 8	> 32	< 8
CC(C)(N)C(=O)N1CCN(C(=O)Nc2ccn(-c3ccc(CNC[C@@H]4[C@H]5CNC[C@@H]45)cc3)c(=O)n2)CC1 [Compound 190]	< 0.5	≥ 1	> 32	< 8	8 to 32	> 32	< 8
CC(Cc1ccc(-n2ccc(NC(=O)N3CCN(C(=O)C(C)(C)N)CC3)nc2=O)cc1)N(C)C1CC2(CC(N)C2)C1 (stereo not drawn) [Compound 191]	≥ 1	≥ 1	8 to 32	< 8	< 8	8 to 32	< 8
CC(Cc1ccc(-n2ccc(NC(=O)N3CCN(C(=O)C(C)(C)N)CC3)nc2=O)cc1F)NC1CC2(CC(N)C2)C1 (stereo not drawn) [Compound 192]	≥ 1	≥ 1	> 32	< 8	< 8	> 32	< 8
CN(CCc1ccc(-n2ccc(NC(=O)N3CCN(C(=O)C(C)(C)N)CC3)nc2=O)cc1)C1CC2(CC(N)C2)C1 (stereo not drawn) [Compound 193]	≥ 1	≥ 1	> 32	< 8	8 to 32	> 32	< 8
CC(Cc1ccc(-n2ccc(NC(=O)N3CCN(C(=O)C(C)(C)N)CC3)nc2=O)cc1)N(CC1CC1)C1CC2(CC(N)C2)C1 (stereo not drawn) [Compound 194]	0.5 to 1	≥ 1	8 to 32	< 8	< 8	> 32	< 8
CC(Cc1ccc(-n2ccc(NC(=O)N3CCN(C(=O)C(C)(C)N)CC3)nc2=O)cc1)N(CC(F)(F)F)C1CC2(CC(N)C2)C1 (stereo not drawn) [Compound 195]	≥ 1	≥ 1	> 32	> 32	> 32	> 32	8 to 32
CC(C)N(C(C)Cc1ccc(-n2ccc(NC(=O)N3CCN(C(=O)C(C)(C)N)CC3)nc2=O)cc1)C1CC2(CC(N)C2)C1 (stereo not drawn) [Compound 196]	≥ 1	≥ 1	> 32	> 32	> 32	> 32	> 32
CC(Cc1ccc(-n2ccc(NC(=O)N3CCN(C(=O)C(C)(C)N)CC3)nc2=O)cc1)N(CCO)C1CC2(CC(N)C2)C1 (stereo not drawn) [Compound 197]	≥ 1	≥ 1	> 32	< 8	8 to 32	> 32	< 8
CCN(C(C)Cc1ccc(-n2ccc(NC(=O)N3CCN(C(=O)C(C)(C)N)CC3)nc2=O)cc1)C12CC(N)(C1)C2 (stereo not drawn) [Compound 198]	≥ 1	≥ 1	> 32	8 to 32	> 32	> 32	8 to 32
CC(Cc1ccc(-n2ccc(NC(=O)N3CCN(C(=O)C(C)(C)N)CC3)nc2=O)cc1)N(C)C12CC(N)(C1)C2 (stereo not drawn) [Compound 199]	≥ 1	≥ 1	> 32	8 to 32	> 32	> 32	8 to 32
CC(Cc1ccc(-n2ccc(NC(=O)N3CCN(C(=O)C(C)(C)N)CC3)nc2=O)cc1)N(C)C12CC(CN)(C1)C2 (stereo not drawn) [Compound 200]	≥ 1	≥ 1	> 32	< 8	> 32	> 32	< 8
